ChEMBL document CHEMBL1147443, “Regioselective oxidation of 2-amino-3-aroyl-4,5-dialkylthiophenes by DMSO” (Bioorg Med Chem Lett, 2004)

Columns and labels:
[1] = Half life by its biological oxidation in presence of horse radish […]; type: ADME; conditions: horseradish, horseradish peroxidase
[2] = Half life by its biological oxidation in presence of human liver microsomes; type: ADME, Microsome

SMILES	half-life [1] [min]	half-life [2] [min]
Nc1sc2c(c1C(=O)c1ccc3ccccc3c1)CCCC2	1.33	< 1
Cc1sc(N)c(C(=O)c2cccc(C(F)(F)F)c2)c1C	< 1	< 1
Nc1sc2c(c1C(=O)c1ccc(-c3ccccc3)cc1)CCCC2	< 1	< 1
